Results taken from ChEMBL document CHEMBL1128754, “The SAR of 6-(N-alkyl-N-acyl)-2-propyl-3-[(2-tetrazol-5-yl)biphen-4-yl)methyl]-quinazolinones as balanced affinity antagonists of the human AT1 and AT2 receptors” (Bioorg Med Chem Lett, 1995).
Numbering of substitutions follows the chain as printed.

Test system: not listed separately
Assay: physchem
Details: octanol/water
Description: Partition coefficient (logP)

SMILES	logP
CCCCCN(C(=O)c1ccc(F)cc1)c1ccc2ncn(Cc3ccc(-c4ccccc4-c4nnnn4C)cc3)c(=O)c2c1	5.2
Cn1nnnc1-c1ccccc1-c1ccc(Cn2cnc3ccc(N(Cc4ccncc4)C(=O)c4ccccc4)cc3c2=O)cc1	3.4
CCCCCN(C(=O)c1ccc(OCc2ccccc2)cc1)c1ccc2ncn(Cc3ccc(-c4ccccc4-c4nnnn4C)cc3)c(=O)c2c1	> 5.7
CCCCCN(C(=O)c1cccnc1)c1ccc2ncn(Cc3ccc(-c4ccccc4-c4nnnn4C)cc3)c(=O)c2c1	4.3
COCCOCCN(C(=O)c1ccccc1)c1ccc2ncn(Cc3ccc(-c4ccccc4-c4nnnn4C)cc3)c(=O)c2c1	3.6
CCCCN(C(=O)c1ccc(F)cc1)c1ccc2ncn(Cc3ccc(-c4ccccc4-c4nnnn4C)cc3)c(=O)c2c1	4.7
CCCCCN(C(=O)c1ccccc1)c1ccc2ncn(Cc3ccc(-c4ccccc4-c4nnnn4C)cc3)c(=O)c2c1	5.1
COC(=O)c1ccc(CN(C(=O)c2ccccc2)c2ccc3ncn(Cc4ccc(-c5ccccc5-c5nnnn5C)cc4)c(=O)c3c2)cc1	4.4
CCCN(C(=O)c1ccc(F)cc1)c1ccc2ncn(Cc3ccc(-c4ccccc4-c4nnnn4C)cc3)c(=O)c2c1	4.3
CCCCN(C(=O)c1ccc(O)cc1)c1ccc2ncn(Cc3ccc(-c4ccccc4-c4nnnn4C)cc3)c(=O)c2c1	4.2
CCCCCN(C(=O)c1ccccc1OC)c1ccc2ncn(Cc3ccc(-c4ccccc4-c4nnnn4C)cc3)c(=O)c2c1	5
Cn1nnnc1-c1ccccc1-c1ccc(Cn2cnc3ccc(N(Cc4ccccc4)C(=O)c4cccnc4)cc3c2=O)cc1	3.7
CC(=O)OCCCCN(C(=O)c1ccccc1)c1ccc2ncn(Cc3ccc(-c4ccccc4-c4nnnn4C)cc3)c(=O)c2c1	3.3
Cn1nnnc1-c1ccccc1-c1ccc(Cn2cnc3ccc(N(Cc4ccccn4)C(=O)c4ccncc4)cc3c2=O)cc1	2.7
CCCCCN(C(=O)c1ccc(O)cc1)c1ccc2ncn(Cc3ccc(-c4ccccc4-c4nnnn4C)cc3)c(=O)c2c1	4.7
Cn1nnnc1-c1ccccc1-c1ccc(Cn2cnc3ccc(N(Cc4ccccc4)C(=O)c4ccncc4)cc3c2=O)cc1	3.7
Cn1nnnc1-c1ccccc1-c1ccc(Cn2cnc3ccc(N(Cc4ccccc4)C(=O)c4ccccc4)cc3c2=O)cc1	4.5
Cn1nnnc1-c1ccccc1-c1ccc(Cn2cnc3ccc(N(Cc4ccc(O)cc4)C(=O)c4ccccc4)cc3c2=O)cc1	3.6

Organism: Rattus norvegicus
Assay: not given
Details: dose 1 mg/kg; route oral

SMILES	Duration [h]
CCCCCN(C(=O)c1ccccc1)c1ccc2ncn(Cc3ccc(-c4ccccc4-c4nnnn4C)cc3)c(=O)c2c1	>3
Cn1nnnc1-c1ccccc1-c1ccc(Cn2cnc3ccc(N(Cc4ccccn4)C(=O)c4ccncc4)cc3c2=O)cc1	<3

Target: Angiotensin II receptor (Homo sapiens) (UniProt P30556+P50052)
Assay: Ratio of receptor binding affinity AT2/AT1 in human adrenal tissue in th+e presence of 2 mg/ml bovine serum albumin
Assay type: protein assay
Details: not given

Angiotensin II receptor (Homo sapiens), sequence (P50052 whole entry, looked up, one chain of several): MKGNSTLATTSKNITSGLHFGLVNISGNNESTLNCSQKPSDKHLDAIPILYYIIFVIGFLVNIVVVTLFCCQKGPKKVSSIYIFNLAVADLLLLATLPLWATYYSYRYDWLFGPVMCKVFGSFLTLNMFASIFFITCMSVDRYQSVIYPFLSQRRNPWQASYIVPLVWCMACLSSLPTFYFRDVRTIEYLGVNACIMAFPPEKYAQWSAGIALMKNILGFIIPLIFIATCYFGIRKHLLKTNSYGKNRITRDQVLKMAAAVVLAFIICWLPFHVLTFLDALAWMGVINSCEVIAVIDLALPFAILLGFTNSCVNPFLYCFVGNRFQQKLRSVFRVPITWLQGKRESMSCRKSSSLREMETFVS

SMILES	Ratio
CCCCCN(C(=O)c1ccccc1)c1ccc2ncn(Cc3ccc(-c4ccccc4-c4nnnn4C)cc3)c(=O)c2c1	1
COC(=O)c1ccc(CN(C(=O)c2ccccc2)c2ccc3ncn(Cc4ccc(-c5ccccc5-c5nnnn5C)cc4)c(=O)c3c2)cc1	1.7
CCCCN(C(=O)c1ccc(O)cc1)c1ccc2ncn(Cc3ccc(-c4ccccc4-c4nnnn4C)cc3)c(=O)c2c1	6.8
Cn1nnnc1-c1ccccc1-c1ccc(Cn2cnc3ccc(N(Cc4ccccn4)C(=O)c4ccncc4)cc3c2=O)cc1	2.3
CCCCCN(C(=O)c1ccc(O)cc1)c1ccc2ncn(Cc3ccc(-c4ccccc4-c4nnnn4C)cc3)c(=O)c2c1	5.8
Cn1nnnc1-c1ccccc1-c1ccc(Cn2cnc3ccc(N(Cc4ccc(O)cc4)C(=O)c4ccccc4)cc3c2=O)cc1	0.8

Target: T1, Angiotensin II receptor (AT-1) type-1 (Rattus norvegicus, UniProt P29089+P25095)
T1 sequence (P29089 whole entry): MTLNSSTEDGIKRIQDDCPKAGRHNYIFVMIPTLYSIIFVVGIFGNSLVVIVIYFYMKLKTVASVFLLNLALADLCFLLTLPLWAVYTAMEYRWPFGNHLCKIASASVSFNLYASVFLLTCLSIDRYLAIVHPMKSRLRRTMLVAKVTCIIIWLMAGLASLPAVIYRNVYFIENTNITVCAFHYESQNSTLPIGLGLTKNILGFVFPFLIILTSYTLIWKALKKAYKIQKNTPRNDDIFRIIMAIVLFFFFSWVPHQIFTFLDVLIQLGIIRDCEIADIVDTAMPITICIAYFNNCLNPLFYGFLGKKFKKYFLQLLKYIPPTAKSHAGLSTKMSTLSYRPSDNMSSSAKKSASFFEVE
T1 sequence (P25095 whole entry): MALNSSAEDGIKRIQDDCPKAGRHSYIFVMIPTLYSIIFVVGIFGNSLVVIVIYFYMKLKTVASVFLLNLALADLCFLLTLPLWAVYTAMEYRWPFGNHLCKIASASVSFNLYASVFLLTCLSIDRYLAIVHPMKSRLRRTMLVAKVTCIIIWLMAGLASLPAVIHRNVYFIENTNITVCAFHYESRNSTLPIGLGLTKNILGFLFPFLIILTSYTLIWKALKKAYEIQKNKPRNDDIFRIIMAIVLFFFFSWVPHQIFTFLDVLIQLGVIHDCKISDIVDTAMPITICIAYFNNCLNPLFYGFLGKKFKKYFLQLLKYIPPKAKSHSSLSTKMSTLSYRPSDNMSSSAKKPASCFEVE
Assay: Binding affinity against AT1 receptor in rat adrenal tissue
Assay type: tissue-based
Details: not given

SMILES	IC50 [nM]
COC(=O)c1ccc(CN(C(=O)c2ccccc2)c2ccc3ncn(Cc4ccc(-c5ccccc5-c5nnnn5C)cc4)c(=O)c3c2)cc1	0.8
CCCCN(C(=O)c1ccc(O)cc1)c1ccc2ncn(Cc3ccc(-c4ccccc4-c4nnnn4C)cc3)c(=O)c2c1	0.3
Cn1nnnc1-c1ccccc1-c1ccc(Cn2cnc3ccc(N(Cc4ccccn4)C(=O)c4ccncc4)cc3c2=O)cc1	2.9
CCCCCN(C(=O)c1ccc(O)cc1)c1ccc2ncn(Cc3ccc(-c4ccccc4-c4nnnn4C)cc3)c(=O)c2c1	0.5
Cn1nnnc1-c1ccccc1-c1ccc(Cn2cnc3ccc(N(Cc4ccccc4)C(=O)c4ccccc4)cc3c2=O)cc1	0.6
Cn1nnnc1-c1ccccc1-c1ccc(Cn2cnc3ccc(N(Cc4ccc(O)cc4)C(=O)c4ccccc4)cc3c2=O)cc1	0.5

Organism: Rattus norvegicus
Assay: not given
Details: dose 1 mg/kg; route intravenous

SMILES	Duration [h]
CCCCCN(C(=O)c1cccnc1)c1ccc2ncn(Cc3ccc(-c4ccccc4-c4nnnn4C)cc3)c(=O)c2c1	<3
CCCCCN(C(=O)c1ccccc1)c1ccc2ncn(Cc3ccc(-c4ccccc4-c4nnnn4C)cc3)c(=O)c2c1	>3
COC(=O)c1ccc(CN(C(=O)c2ccccc2)c2ccc3ncn(Cc4ccc(-c5ccccc5-c5nnnn5C)cc4)c(=O)c3c2)cc1	<3
CCCCN(C(=O)c1ccc(O)cc1)c1ccc2ncn(Cc3ccc(-c4ccccc4-c4nnnn4C)cc3)c(=O)c2c1	>3
Cn1nnnc1-c1ccccc1-c1ccc(Cn2cnc3ccc(N(Cc4ccccn4)C(=O)c4ccncc4)cc3c2=O)cc1	<3
CCCCCN(C(=O)c1ccc(O)cc1)c1ccc2ncn(Cc3ccc(-c4ccccc4-c4nnnn4C)cc3)c(=O)c2c1	>3
Cn1nnnc1-c1ccccc1-c1ccc(Cn2cnc3ccc(N(Cc4ccccc4)C(=O)c4ccccc4)cc3c2=O)cc1	<3

Target: T2, Type-1 angiotensin II receptor (Homo sapiens, UniProt P30556)
T2 sequence (P30556 whole entry): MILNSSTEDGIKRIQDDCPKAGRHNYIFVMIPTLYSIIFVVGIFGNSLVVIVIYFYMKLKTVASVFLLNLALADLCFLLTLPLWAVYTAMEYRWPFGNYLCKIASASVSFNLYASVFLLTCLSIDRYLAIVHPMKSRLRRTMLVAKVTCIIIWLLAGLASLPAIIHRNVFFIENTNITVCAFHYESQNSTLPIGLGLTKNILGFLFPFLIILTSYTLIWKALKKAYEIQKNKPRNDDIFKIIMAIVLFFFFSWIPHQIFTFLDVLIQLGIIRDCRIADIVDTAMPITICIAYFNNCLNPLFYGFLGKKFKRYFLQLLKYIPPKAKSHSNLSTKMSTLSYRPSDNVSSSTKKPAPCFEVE
Assay: biochemical
Details: not given

SMILES	IC50 [nM]
CCCCCN(C(=O)c1ccccc1)c1ccc2ncn(Cc3ccc(-c4ccccc4-c4nnnn4C)cc3)c(=O)c2c1	6.9
COC(=O)c1ccc(CN(C(=O)c2ccccc2)c2ccc3ncn(Cc4ccc(-c5ccccc5-c5nnnn5C)cc4)c(=O)c3c2)cc1	9.6
CCCCN(C(=O)c1ccc(O)cc1)c1ccc2ncn(Cc3ccc(-c4ccccc4-c4nnnn4C)cc3)c(=O)c2c1	4
Cn1nnnc1-c1ccccc1-c1ccc(Cn2cnc3ccc(N(Cc4ccccn4)C(=O)c4ccncc4)cc3c2=O)cc1	4.4
CCCCCN(C(=O)c1ccc(O)cc1)c1ccc2ncn(Cc3ccc(-c4ccccc4-c4nnnn4C)cc3)c(=O)c2c1	4.9
Cn1nnnc1-c1ccccc1-c1ccc(Cn2cnc3ccc(N(Cc4ccc(O)cc4)C(=O)c4ccccc4)cc3c2=O)cc1	6

Test system: not listed separately
Assay: Bioavailability in dog (dose of 1.0 mg/kg i.v.) 0.5 hr
Assay type: ADME, organism-based, Canis lupus familiaris
Details: in vivo, iv

SMILES	bioavailability [%]
CCCCCN(C(=O)c1ccccc1)c1ccc2ncn(Cc3ccc(-c4ccccc4-c4nnnn4C)cc3)c(=O)c2c1	73

Target: T3, Type-1 angiotensin II receptor (Oryctolagus cuniculus, UniProt P34976)
T3 sequence (P34976 whole entry): T2 sequence (P30556 whole entry) with I2M, V49A, I254V, I270V, R272H, R311K, T349S, A353V
Assay: biochemical
Details: not given

SMILES	IC50 [nM]
CCCCCN(C(=O)c1ccc(F)cc1)c1ccc2ncn(Cc3ccc(-c4ccccc4-c4nnnn4C)cc3)c(=O)c2c1	1.7
Cn1nnnc1-c1ccccc1-c1ccc(Cn2cnc3ccc(N(Cc4ccncc4)C(=O)c4ccccc4)cc3c2=O)cc1	5.5
CCCCCN(C(=O)c1ccc(OCc2ccccc2)cc1)c1ccc2ncn(Cc3ccc(-c4ccccc4-c4nnnn4C)cc3)c(=O)c2c1	8.4
CCCCCN(C(=O)c1cccnc1)c1ccc2ncn(Cc3ccc(-c4ccccc4-c4nnnn4C)cc3)c(=O)c2c1	4.5
COCCOCCN(C(=O)c1ccccc1)c1ccc2ncn(Cc3ccc(-c4ccccc4-c4nnnn4C)cc3)c(=O)c2c1	2.2
CCCCN(C(=O)c1ccc(F)cc1)c1ccc2ncn(Cc3ccc(-c4ccccc4-c4nnnn4C)cc3)c(=O)c2c1	2.3
CCCCCN(C(=O)c1ccccc1)c1ccc2ncn(Cc3ccc(-c4ccccc4-c4nnnn4C)cc3)c(=O)c2c1	1.7
COC(=O)c1ccc(CN(C(=O)c2ccccc2)c2ccc3ncn(Cc4ccc(-c5ccccc5-c5nnnn5C)cc4)c(=O)c3c2)cc1	3.9
CCCN(C(=O)c1ccc(F)cc1)c1ccc2ncn(Cc3ccc(-c4ccccc4-c4nnnn4C)cc3)c(=O)c2c1	1.9
CCCCN(C(=O)c1ccc(O)cc1)c1ccc2ncn(Cc3ccc(-c4ccccc4-c4nnnn4C)cc3)c(=O)c2c1	1.2
CCCCCN(C(=O)c1ccccc1OC)c1ccc2ncn(Cc3ccc(-c4ccccc4-c4nnnn4C)cc3)c(=O)c2c1	1.1
Cn1nnnc1-c1ccccc1-c1ccc(Cn2cnc3ccc(N(Cc4ccccc4)C(=O)c4cccnc4)cc3c2=O)cc1	11
CC(=O)OCCCCN(C(=O)c1ccccc1)c1ccc2ncn(Cc3ccc(-c4ccccc4-c4nnnn4C)cc3)c(=O)c2c1	1.3
Cn1nnnc1-c1ccccc1-c1ccc(Cn2cnc3ccc(N(Cc4ccccn4)C(=O)c4ccncc4)cc3c2=O)cc1	9.7
CCCCCN(C(=O)c1ccc(O)cc1)c1ccc2ncn(Cc3ccc(-c4ccccc4-c4nnnn4C)cc3)c(=O)c2c1	0.9
Cn1nnnc1-c1ccccc1-c1ccc(Cn2cnc3ccc(N(Cc4ccccc4)C(=O)c4ccncc4)cc3c2=O)cc1	3.4
Cn1nnnc1-c1ccccc1-c1ccc(Cn2cnc3ccc(N(Cc4ccccc4)C(=O)c4ccccc4)cc3c2=O)cc1	4.6
Cn1nnnc1-c1ccccc1-c1ccc(Cn2cnc3ccc(N(Cc4ccc(O)cc4)C(=O)c4ccccc4)cc3c2=O)cc1	4.9

Target: Angiotensin II receptor (Rattus norvegicus) (UniProt P29089+P25095+P35351)
Assay: Ratio of receptor binding affinity AT2/AT1 in rat adrenal tissue
Details: not given

SMILES	Ratio
COC(=O)c1ccc(CN(C(=O)c2ccccc2)c2ccc3ncn(Cc4ccc(-c5ccccc5-c5nnnn5C)cc4)c(=O)c3c2)cc1	1.9
CCCCN(C(=O)c1ccc(O)cc1)c1ccc2ncn(Cc3ccc(-c4ccccc4-c4nnnn4C)cc3)c(=O)c2c1	17
Cn1nnnc1-c1ccccc1-c1ccc(Cn2cnc3ccc(N(Cc4ccccn4)C(=O)c4ccncc4)cc3c2=O)cc1	1.6
CCCCCN(C(=O)c1ccc(O)cc1)c1ccc2ncn(Cc3ccc(-c4ccccc4-c4nnnn4C)cc3)c(=O)c2c1	3.1
Cn1nnnc1-c1ccccc1-c1ccc(Cn2cnc3ccc(N(Cc4ccccc4)C(=O)c4ccccc4)cc3c2=O)cc1	0.1
Cn1nnnc1-c1ccccc1-c1ccc(Cn2cnc3ccc(N(Cc4ccc(O)cc4)C(=O)c4ccccc4)cc3c2=O)cc1	1.5
